Source: paper PMC13197777, “Distinct 2-phenylimidazo[1,2-a]pyridine derivatives that inhibit breast cancer cell proliferation identified as AHR ligands” (iScience, 2026)
≈ marks a conversion by molar mass, not a printed value.

Legend:
[1] = test system: PDxO#28; test: Organoid viability, CellTiter-Glo 3D; format: cell-based, human; settings: PDxO#28 in 3D Matrigel, 7 days, increasing doses; same results in PDO#268 and PDO#480
From the text: Organoids were generated from patients’ samples and from patient-derived xenograft (PDX) tumors, as previously described.[25] PDX were derived from BCRO#28, an ER^+ breast cancer sample collected from a treatment naive patient. PDO#268 was derived from BCRO#268, an ER^+ breast cancer sample collected from treatment naive patient. PDO#480 was derived from BCRO#480, an ER^+ breast cancer sample collected from a patient subjected to chemotherapy in neo-adjuvant setting. Briefly, tumors freshly explanted from mice were mechanically shredded, digested with collagenase (Merck) and filtered through a 100 μm strainer. Digested material (isolated cells and small cell clusters) was centrifuged and embedded in 3D-matrix drops (reduced growth factor Basement Membrane Extract, BME, R&D systems), then overlaid with breast cancer organoid medium.[25] For 3D survival curves under treatment, organoids were embedded in BME drops and, after 24 - 48 h, drugs were added. Fresh drug-containing medium was replaced on day 4. On day 7 of treatment, CellTiter-Glo 3D Cell Viability Assay (Promega) was added and luminescent signal from viable organoids was recorded on Infinite M1000 Pro instrument (Tecan).

[2] = Thermodynamic solubility, shake-flask method; format: physicochemical; settings: HEPES buffer 0.1 M pH 7.4, 21 °C
Method: Thermodynamic solubility was determined using the classical shake-flask method. The solid compound (4 mg) was suspended in 1 mL HEPES buffer (0.1 M, pH 7.4) and constantly stirred at 21 °C for 24 h. […] The injection volume for all analyses was 50 μL and the flow rate was kept at 1 mL/min during the analysis. A mobile phase gradient method was applied as a method with 5% solvent B to 99% solvent B in 5 min, followed by 3 min of elution at 99% solvent B.
Calibration curve was generated from a serial dilution of the respective analyte in DMSO at 2.5, 1.25, 0.625, 0.313, 0.156, 0.078, 0.039 mM starting from a 10 mM DMSO stock solution. Subsequently, 2 μL of each dilution was added to 198 μL of a buffer (HEPES, 0.1 M, pH 7.4)/acetonitrile mixture in a 3:2 ratio yielding final dilutions of 25, 12.5, 6.25, 3.125, 1.562, 0.781, 0.391 μM. These were then subjected to HPLC analysis as described above.
Using the results from the linear regression of the internal calibration measurement points (Figure S5) and the mean AUC values from the saturated aqueous solutions, the concentration C of the analytes in the saturated aqueous solution, expressed in μM, were calculated using Equation 2:(Equation 1) AUC=Slope·C+YIntercept (Equation 2) C=AUC−YIntercept/Slope

[3] = Parallel artificial membrane permeability assay (PAMPA); settings: for Conc. acceptor well / Conc. donor well: PAMPA after incubation
Method: The plates were stored at – 20 °C until ready for use. Prior to use, the plate was prewarmed at room temperature for 30 min. Donor- and acceptor solutions were prepared as 12 mM phosphate buffered saline with a pH of 6.5 (donor) respectively 7.4 (acceptor). […] Then, 300 μL of each donor solution were filled into the donor (bottom) wells of the PAMPA plate. 200 μL of the acceptor medium were loaded into each well of the pre-coated receiver plate (top). […] The compound concentrations in the donor- and acceptor wells were then determined using a Jasco 2 HPLC system equipped with a ReproSil-Pur 120 ODS-3 column (5 μm, 50 × 2 mm) and UV detection. […] The injection volume was 40 μL and the flow rate 1 mL/min. […] For X15695, two calibration curves were prepared in the presence (donor well) and absence (acceptor well) of 10% ethanol. (Figure S6). The experiments were performed in triplicates.
Where cA(t) is the compound concentration in the acceptor well in μmol⋅l^−1, cD(t) is the compound concentration in the donor well in […], VA and VD is the volume of the acceptor respectively donor solution per well in mL, A is the membrane area in cm^2 and t the incubation time in seconds (Table S3).

Fc1ccc(-c2cn3cc(C(F)(F)F)cc(Cl)c3n2)cc1 [X15695]
organoid viability (survival) [1]: significantly reduced survival in a dose-dependent manner | solubility thermodynamic at 24 h [2]: 3 µM (≈ 0.944 µg/mL) | solubility thermodynamic at 24 h ([2]; HEPES buffer, 21 °C, pH 7.4, aqueous buffer, thermodynamic from solid): 2.99 µM (≈ 0.941 µg/mL) | Papp at 5 h, 200 µM ([3]; PAMPA): 8.68 ×10⁻⁶ cm/s | Conc. acceptor well ([3]; replica 1): 55.19 µM | Conc. donor well ([3]; replica 1): 214.69 µM | Conc. acceptor well ([3]; replica 2): 55.84 µM | Conc. donor well ([3]; replica 2): 190.41 µM | Conc. acceptor well ([3]; replica 3): 25.23 µM | Conc. donor well ([3]; replica 3): 225.99 µM
